Measured values reported in article PMC8654043 (Chemical Science, 2021).

Tests used:
[1] = molecular target: caspase-8 (Homo sapiens, UniProt Q14790); format: biochemical
[2] = molecular target: T1, caspase-9 (Homo sapiens, UniProt P55211); format: biochemical
T1 sequence (P55211 1-416): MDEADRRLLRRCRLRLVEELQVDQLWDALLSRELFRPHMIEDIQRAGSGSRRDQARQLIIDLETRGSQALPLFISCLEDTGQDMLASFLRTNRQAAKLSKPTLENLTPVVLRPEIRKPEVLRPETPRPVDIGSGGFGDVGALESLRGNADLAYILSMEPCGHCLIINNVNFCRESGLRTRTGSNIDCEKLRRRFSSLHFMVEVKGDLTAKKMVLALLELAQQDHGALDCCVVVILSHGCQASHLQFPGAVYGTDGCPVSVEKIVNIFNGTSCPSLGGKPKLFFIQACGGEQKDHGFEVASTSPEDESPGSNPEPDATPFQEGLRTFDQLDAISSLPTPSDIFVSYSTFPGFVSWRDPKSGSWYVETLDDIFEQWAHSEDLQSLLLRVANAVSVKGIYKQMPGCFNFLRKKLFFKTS

caspase-8, sequence (Q14790 217-374): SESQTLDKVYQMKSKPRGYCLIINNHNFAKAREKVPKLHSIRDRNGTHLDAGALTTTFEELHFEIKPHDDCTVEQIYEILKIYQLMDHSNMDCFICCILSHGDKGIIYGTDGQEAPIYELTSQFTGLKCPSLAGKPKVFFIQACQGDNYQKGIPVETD
caspase-8, sequence (Q14790 385-479): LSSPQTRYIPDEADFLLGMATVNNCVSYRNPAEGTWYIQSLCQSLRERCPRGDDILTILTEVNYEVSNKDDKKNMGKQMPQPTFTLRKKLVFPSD

Q: Which results are given for `CC(C)[C@H](NC(=O)c1ccc2ccccc2n1)C(=O)N[C@@H](CC(=O)O)C(=O)COc1c(F)cccc1F` [Q-VD-OPh]?
A: IC50 [1]: 280 nM; IC50 [2]: 310 nM
